Data on 22 compounds can be found in US20260315464A1, “COMPOSITIONS, METHODS, AND SYSTEMS FOR MODULATING SPLICING OF MSH3” (REVIR THERAPEUTICS, INC., priority 2023, published 2026).

The experiment concerns MSH3. As to the kind of experiment: QPCR assay for levels of MSH3 upon compound treatment in HEK293T or AD293 cells (fold-change of MSH3 transcript, EC50 of MSH3 downregulation; total MSH3 exons 13/14, exons 20/21; Table 8). The class given is cell-based. The conditions noted are these: for mrna remaining at 1 µM / mrna remaining at 10 µM: Homo sapiens, fold-change of the MSH3 transcript, normalized to GAPDH; for mrna remaining at 1 µM: 1 μM compound; for mrna remaining at 10 µM: 10 μM compound; for EC50: EC50 of MSH3 downregulation, XtalPi. In a few lines:
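HEK293T or AD293 cells were treated at 1 μM and […]; RNA-to-cDNA qPCR used TaqMan assays for total MSH3 (exons 13/14, exons 20/21) and poison-exon junctions exon 13/PE14A and exon 20/PE21A. Transcript levels were normalized to GAPDH.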

As for `Cn1nc(Cl)c(-c2cc(F)c3c(c2)C(=O)N(c2ccc(N4CC5CCC(C4)N5)nn2)C3)n1` [Compound 653, 2-(6-(3,8-diazabicyclo[3.2.1]octan-3-yl)pyridazin-3-yl)-6-(5-chloro-2-methyl-2H-1,2,3-triazol-4-yl)-4-fluoroisoindolin-1-one], the mrna remaining at 1 µM is 93% and the mrna remaining at 10 µM worked out at 27%.

`CN(c1ccc(N2Cc3ncc(-c4cn(C)nc4F)cc3C2=O)nn1)C1CC(C)(C)NC(C)(C)C1` [Compound 187, 3-(3-fluoro-1-methyl-1H-pyrazol-4-yl)-6-(6-(methyl(2,2,6,6-tetramethylpiperidin-4-yl)amino)pyridazin-3-yl)-6,7-dihydro-5H-pyrrolo[3,4-b]pyridin-5-one]: the mrna remaining at 1 µM was found to be 92% and the mrna remaining at 10 µM was 25%.

On to `Cc1nn(C)cc1-c1cnc2c(c1)C(=O)N(c1ccc(OC3CC(C)(C)NC(C)(C)C3)nn1)C2` [Compound 141, 3-(1,3-dimethyl-1H-pyrazol-4-yl)-6-(6-((2,2,6,6-tetramethylpiperidin-4-yl)oxy)pyridazin-3-yl)-6,7-dihydro-5H-pyrrolo[3,4-b]pyridin-5-one], for which the mrna remaining at 1 µM was determined as 67% and the mrna remaining at 10 µM was 6%.

In the case of `Cc1nn(C)cc1-c1cc(F)c2c(c1)C(=O)N(c1ccc(OC3CC(C)(C)NC(C)(C)C3)nn1)C2` [Compound 276, 6-(1,3-dimethyl-1H-pyrazol-4-yl)-4-fluoro-2-(6-((2,2,6,6-tetramethylpiperidin-4-yl)oxy)pyridazin-3-yl)isoindolin-1-one], the mrna remaining at 1 µM turned out to be 103% and the mrna remaining at 10 µM was found to be 38%.

Turning to `CN(c1ccc(N2Cc3cnc(-c4cn(C)nc4C(F)(F)F)cc3C2=O)nn1)[C@H]1C[C@]2(C)CC[C@](C)(C1)N2` [Compound 61, 2-(6-(((1R,3s,5S)-1,5-dimethyl-8-azabicyclo[3.2.1]octan-3-yl)(methyl)amino)pyridazin-3-yl)-6-(1-methyl-3-(trifluoromethyl)-1H-pyrazol-4-yl)-2,3-dihydro-1H-pyrrolo[3,4-c]pyridin-1-one], the mrna remaining at 1 µM was 44% and the mrna remaining at 10 µM was found to be 18%.

As for `CN(c1ncc(N2Cc3ccc(-c4cnn(C)n4)cc3C2=O)nn1)C1CC(C)(C)NC(C)(C)C1` [Compound 420, 2-(3-(methyl(2,2,6,6-tetramethylpiperidin-4-yl)amino)-1,2,4-triazin-6-yl)-6-(2-methyl-2H-1,2,3-triazol-4-yl)isoindolin-1-one], the mrna remaining at 1 µM turned out to be 74% and the mrna remaining at 10 µM is 73%.

Regarding `Cc1nn(C)cc1-c1cc(F)c2c(c1)C(=O)N(c1ccc(OC3CC(C)(C)NC4(CC4)C3)nn1)C2` (stereo not shown) [Compound 284, 6-(1,3-dimethyl-1H-pyrazol-4-yl)-2-(6-((5,5-dimethyl-4-azaspiro[2.5]octan-7-yl)oxy)pyridazin-3-yl)-4-fluoroisoindolin-1-one], the mrna remaining at 1 µM was determined as 91% and the mrna remaining at 10 µM worked out at 73%.

On to `Cc1nn(C)cc1-c1ccc2c(c1)C(=O)N(c1ccc(O[C@H]3C[C@]4(C)CC[C@](C)(C3)N4)nn1)C2` [Compound 416, 6-(1,3-dimethyl-1H-pyrazol-4-yl)-2-(6-(((1R,3s,5S)-1,5-dimethyl-8-azabicyclo[3.2.1]octan-3-yl)oxy)pyridazin-3-yl)isoindolin-1-one], for which the mrna remaining at 1 µM is 37%.

As for `Cc1nn(C)nc1-c1cnc2c(c1)C(=O)N(c1ccc(S[C@H]3C[C@]4(C)CC[C@](C)(C3)N4)nn1)C2` [Compound 611, 3-(2,5-dimethyl-2H-1,2,3-triazol-4-yl)-6-(6-(((1R,3s,5S)-1,5-dimethyl-8-azabicyclo[3.2.1]octan-3-yl)thio)pyridazin-3-yl)-6,7-dihydro-5H-pyrrolo[3,4-b]pyridin-5-one], the mrna remaining at 1 µM came out at 90% and the mrna remaining at 10 µM was determined as 79%.

`COc1cc(-c2nn(C)nc2C)cc2c1CN(c1ccc(N(C)[C@H]3C[C@]4(C)CC[C@](C)(C3)N4)nn1)C2=O` [Compound 687, 6-(2,5-dimethyl-2H-1,2,3-triazol-4-yl)-2-(6-(((1R,3s,5S)-1,5-dimethyl-8-azabicyclo[3.2.1]octan-3-yl)(methyl)amino)pyridazin-3-yl)-4-methoxyisoindolin-1-one]: the mrna remaining at 1 µM worked out at 110% and the mrna remaining at 10 µM is 19%.

In general, EC50 refers to the concentration at which the effect is half-maximal. A high value points to a less potent agent. On to `Cc1nn(C)nc1-c1cnc2c(c1)C(=O)N(c1ccc(O[C@H]3C[C@]4(C)CC[C@](C)(C3)N4)nn1)C2` [Compound 206, 3-(2,5-dimethyl-2H-1,2,3-triazol-4-yl)-6-(6-(((1R,3s,5S)-1,5-dimethyl-8-azabicyclo[3.2.1]octan-3-yl)oxy)pyridazin-3-yl)-6,7-dihydro-5H-pyrrolo[3,4-b]pyridin-5-one], for which the concentration for a half-maximal effect (EC50) turned out to be 507 nM, the mrna remaining at 1 µM amounted to 36% and the mrna remaining at 10 µM was 13%.

Consider `Cn1ncc(-c2cnc3c(c2)C(=O)N(c2ccc(O[C@H]4C[C@]5(C)CC[C@](C)(C4)N5)nn2)C3)n1` [Compound 599, 6-(6-(((1R,3s,5S)-1,5-dimethyl-8-azabicyclo[3.2.1]octan-3-yl)oxy)pyridazin-3-yl)-3-(2-methyl-2H-1,2,3-triazol-4-yl)-6,7-dihydro-5H-pyrrolo[3,4-b]pyridin-5-one], for which the mrna remaining at 1 µM amounted to 94% and the mrna remaining at 10 µM was found to be 24%.

Turning to `CN(c1ccc(N2Cc3ncc(-c4cn(C)nc4C(F)(F)F)cc3C2=O)nn1)[C@H]1C[C@]2(C)CC[C@](C)(C1)N2` [Compound 183, 6-(6-(((1R,3s,5S)-1,5-dimethyl-8-azabicyclo[3.2.1]octan-3-yl)(methyl)amino)pyridazin-3-yl)-3-(1-methyl-3-(trifluoromethyl)-1H-pyrazol-4-yl)-6,7-dihydro-5H-pyrrolo[3,4-b]pyridin-5-one], the mrna remaining at 1 µM is 99% and the mrna remaining at 10 µM amounted to 28%.

For `CN(c1ccc(N2Cc3c(F)cc(-c4cnn(CC(C)(C)O)n4)cc3C2=O)nn1)[C@H]1C[C@]2(C)CC[C@](C)(C1)N2` [Compound 634, 2-(6-(((1R,3s,5S)-1,5-dimethyl-8-azabicyclo[3.2.1]octan-3-yl)(methyl)amino)pyridazin-3-yl)-4-fluoro-6-(2-(2-hydroxy-2-methylpropyl)-2H-1,2,3-triazol-4-yl)isoindolin-1-one], the mrna remaining at 1 µM was 63% and the mrna remaining at 10 µM turned out to be 76%.

For the compound `Cc1nn(C)cc1-c1cnc2c(c1)C(=O)N(c1ccc(OC3CCC(C)(C)NC(C)(C)C3)nn1)C2` (stereo not shown) [Compound 479, 3-(1,3-dimethyl-1H-pyrazol-4-yl)-6-(6-((2,2,7,7-tetramethylazepan-4-yl)oxy)pyridazin-3-yl)-6,7-dihydro-5H-pyrrolo[3,4-b]pyridin-5-one], the mrna remaining at 1 µM is 119% and the mrna remaining at 10 µM was determined as 56%.

As to `Cc1nn(C)cc1-c1cc(F)c2c(c1)C(=O)N(c1ccc(O[C@H]3CC(C)(C)NC(C)(C)[C@H]3F)nn1)C2` [Compound 280, 6-(1,3-dimethyl-1H-pyrazol-4-yl)-4-fluoro-2-(6-(((3R,4S)-3-fluoro-2,2,6,6-tetramethylpiperidin-4-yl)oxy)pyridazin-3-yl)isoindolin-1-one], the mrna remaining at 1 µM came to 99% and the mrna remaining at 10 µM was found to be 66%.

Turning to `COc1cc(OC2CC(C)(C)NC(C)(C)C2)nnc1N1Cc2ncc(-c3cn(C)nc3C)cc2C1=O` [Compound 203, 3-(1,3-dimethyl-1H-pyrazol-4-yl)-6-(4-methoxy-6-((2,2,6,6-tetramethylpiperidin-4-yl)oxy)pyridazin-3-yl)-6,7-dihydro-5H-pyrrolo[3,4-b]pyridin-5-one], the mrna remaining at 1 µM is 56% and the mrna remaining at 10 µM amounted to 62%.

Take `Cc1nn(C)cc1-c1cc(F)c2c(c1)C(=O)N(c1ccc(N(C)C3CC(C)(C)NC(C)(C)C3)nn1)C2` [Compound 275, 6-(1,3-dimethyl-1H-pyrazol-4-yl)-4-fluoro-2-(6-(methyl(2,2,6,6-tetramethylpiperidin-4-yl)amino)pyridazin-3-yl)isoindolin-1-one]: the mrna remaining at 1 µM amounted to 79% and the mrna remaining at 10 µM came to 26%.

Take `Cn1nc(Cl)c(-c2cnc3c(c2)C(=O)N(c2ccc(O[C@H]4CCC(C)(C)NC(C)(C)C4)nn2)C3)n1` [Compound 607, (S)-3-(5-chloro-2-methyl-2H-1,2,3-triazol-4-yl)-6-(6-((2,2,7,7-tetramethylazepan-4-yl)oxy)pyridazin-3-yl)-6,7-dihydro-5H-pyrrolo[3,4-b]pyridin-5-one]: the mrna remaining at 1 µM came to 72% and the mrna remaining at 10 µM turned out to be 9%.

Take `Cc1nn(C)nc1-c1cc(F)c2c(c1)C(=O)N(c1ccc(N3CCN[C@H](C(C)C)C3)nn1)C2` [Compound 640, (R)-6-(2,5-dimethyl-2H-1,2,3-triazol-4-yl)-4-fluoro-2-(6-(3-isopropylpiperazin-1-yl)pyridazin-3-yl)isoindolin-1-one]: the mrna remaining at 1 µM is 99% and the mrna remaining at 10 µM came to 25%.

With `CN(c1ccc(N2Cc3ncc(-c4nn(C)nc4Cl)cc3C2=O)nn1)C1CC(C)(C)NC2(CCC2)C1` (stereo not shown) [Compound 621, 3-(5-chloro-2-methyl-2H-1,2,3-triazol-4-yl)-6-(6-((6,6-dimethyl-5-azaspiro[3.5]nonan-8-yl)(methyl)amino)pyridazin-3-yl)-6,7-dihydro-5H-pyrrolo[3,4-b]pyridin-5-one], the 50% effective concentration (EC50) turned out to be 229 nM.

In the case of `Cc1nn(C)nc1-c1cnc2c(n1)C(=O)N(c1ccc(OC3CC(C)(C)NC(C)(C)C3)nn1)C2` [Compound 624, 3-(2,5-dimethyl-2H-1,2,3-triazol-4-yl)-6-(6-((2,2,6,6-tetramethylpiperidin-4-yl)oxy)pyridazin-3-yl)-6,7-dihydro-5H-pyrrolo[3,4-b]pyrazin-5-one], the mrna remaining at 1 µM is 60% and the mrna remaining at 10 µM came out at 12%.
